From patent US20110269790A1, “NOVEL THIENOPYRIDINES AS PHARMACOLOGICALLY ACTIVE AGENTS” (priority 2009, published 2011)

Test system: rats
Assay: Collagen induced arthritis
Assay type: in vivo, rat
Settings: collagen induced study; BN compounds 100 mg/kg, Indomethacin 2.5 mg/kg
Text: Group I—Normal Control; Group II—Arthritic control; Group III—Arthritic rats administered with Synthetic compound BN-4; Group IV—arthritic rats administered with compound BN-14; Group V—arthritic rats administered with BN-16; Group VI—arthritic rats administered with standard drug indomethacin. […] The test and indomethacin doses continued up to 21 days in FCA induced model and 24 days in collagen induced model. […] Before sacrificing the animals, blood was collected and used for estimation of total leukocyte count, TNF-α and IL-1β. […] In collagen induced study the total WBC count was analyzed by using cell counter and count as follows; […]

Structure (SMILES) | Total WBC count
COc1ccc2c(c1)c(CC(=O)O)c(C)n2C(=O)c1ccc(Cl)cc1 [Indomethacin, reference compound] | 19.70±2.23

Test system: Wistar rats
Assay: Antidiabetic activity by starch loaded model
Assay type: in vivo, rat
Settings: 100 mg/kg oral, starch 2 gm/kg, 30-120 min, vs diabetic control
Text: Experimental Animals—Wistar rats of either sex were used for the present study. Animals selected for use in the study were of uniform age and body weight. A minimum of 40 rats, from which eventually 20 rats were selected. Their body weights were in the range of 150-180 gm. The health status of the animals was ascertained by a veterinary surgeon. […] Animals were acclimatized for at least two weeks prior to start of the study. The animals were provided with pellet diet manufactured by NIN, HYDERABAD, India and drinking water adlibitum.
Compound Preparation The required quantity of the synthetic compounds were weighed and made suspension with gum acacia (2%). The test compounds were administered to all rats by per oral route. Acarbose suspension was also prepared in gum acasia suspension and given by oral route.
Antidiabetic activity by Starch model: The method of Rao et al., 2009;Tiwari et al was employed. Animals were fasted over night (12 hrs). Basal blood glucose levels were estimated for all the animals prior to dosing in test and standard groups. This was designated as “0” min reading. […] After test compounds administration animals in all three groups received Starch aqueous solution (2 gm/kg body weight). Blood glucose levels were monitored at 30, 60, 90 and 120 min after the administration of Starch in all the three groups. The percentage of increase in, blood glucose levels was calculated with respect to the control group at each time point.

Structure (SMILES) | Reduction in percentage increase in blood glucose levels
Nc1c2c(nc3sc4c(c13)CCC4)CCC2 [BN-13, 1,2,3,6,7,8-hexahydrocyclopenta [b]cyclopenta[4,5] thieno[3,2-e]pyridin-9-amine] | greatest inhibitory activity

Same assay, conditions: 30 min after starch; test compounds 100 mg/kg, Acarbose 10 mg/kg oral

Structure (SMILES) | % Increase in glucose, 30 min [%]
Nc1c2c(nc3sc4c(c13)CCC4)CCC2 [BN-13, 1,2,3,6,7,8-hexahydrocyclopenta [b]cyclopenta[4,5] thieno[3,2-e]pyridin-9-amine] | 32.75
CC1CCc2c(nc3sc4c(c3c2N)CCC4)C1 (centres unmarked) [BN-15, 7-Methyl-2,3,6,7,8,9-hexahydro-1H-cyclopenta[4,5]thieno[2,3-b]quinolin-10-amine] | 42.13
Nc1c2c(nc3sc4c(c13)CCC4)CCCCCC2 [BN-17, 2,3,6,7,8,9,10,11-Octahydro-1H-cycloocta [b]cyclopenta[4,5]thieno[3,2-e]pyridin-12-amine] | 51.74

Same assay, conditions: 30 min after starch; test compounds 100 mg/kg, Acarbose 10 mg/kg oral; in mg/dL (unit assumed)

Structure (SMILES) | Blood glucose level, 30 min
Nc1c2c(nc3sc4c(c13)CCC4)CCC2 [BN-13, 1,2,3,6,7,8-hexahydrocyclopenta [b]cyclopenta[4,5] thieno[3,2-e]pyridin-9-amine] | 108.37
CC1CCc2c(nc3sc4c(c3c2N)CCC4)C1 (centres unmarked) [BN-15, 7-Methyl-2,3,6,7,8,9-hexahydro-1H-cyclopenta[4,5]thieno[2,3-b]quinolin-10-amine] | 115.50
Nc1c2c(nc3sc4c(c13)CCC4)CCCCCC2 [BN-17, 2,3,6,7,8,9,10,11-Octahydro-1H-cycloocta [b]cyclopenta[4,5]thieno[3,2-e]pyridin-12-amine] | 124.60

Same assay, conditions: 60 min after starch; test compounds 100 mg/kg, Acarbose 10 mg/kg oral

Structure (SMILES) | % Increase in glucose, 60 min [%]
Nc1c2c(nc3sc4c(c13)CCC4)CCC2 [BN-13, 1,2,3,6,7,8-hexahydrocyclopenta [b]cyclopenta[4,5] thieno[3,2-e]pyridin-9-amine] | 35.89
CC1CCc2c(nc3sc4c(c3c2N)CCC4)C1 (centres unmarked) [BN-15, 7-Methyl-2,3,6,7,8,9-hexahydro-1H-cyclopenta[4,5]thieno[2,3-b]quinolin-10-amine] | 51.64
Nc1c2c(nc3sc4c(c13)CCC4)CCCCCC2 [BN-17, 2,3,6,7,8,9,10,11-Octahydro-1H-cycloocta [b]cyclopenta[4,5]thieno[3,2-e]pyridin-12-amine] | 52.35

Same assay, conditions: 60 min after starch; test compounds 100 mg/kg, Acarbose 10 mg/kg oral; in mg/dL (unit assumed)

Structure (SMILES) | Blood glucose level, 60 min
Nc1c2c(nc3sc4c(c13)CCC4)CCC2 [BN-13, 1,2,3,6,7,8-hexahydrocyclopenta [b]cyclopenta[4,5] thieno[3,2-e]pyridin-9-amine] | 110.82
CC1CCc2c(nc3sc4c(c3c2N)CCC4)C1 (centres unmarked) [BN-15, 7-Methyl-2,3,6,7,8,9-hexahydro-1H-cyclopenta[4,5]thieno[2,3-b]quinolin-10-amine] | 123.03
Nc1c2c(nc3sc4c(c13)CCC4)CCCCCC2 [BN-17, 2,3,6,7,8,9,10,11-Octahydro-1H-cycloocta [b]cyclopenta[4,5]thieno[3,2-e]pyridin-12-amine] | 125.13

Same assay, conditions: 90 min after starch; test compounds 100 mg/kg, Acarbose 10 mg/kg oral

Structure (SMILES) | % Increase in glucose, 90 min [%]
Nc1c2c(nc3sc4c(c13)CCC4)CCC2 [BN-13, 1,2,3,6,7,8-hexahydrocyclopenta [b]cyclopenta[4,5] thieno[3,2-e]pyridin-9-amine] | 30.53
CC1CCc2c(nc3sc4c(c3c2N)CCC4)C1 (centres unmarked) [BN-15, 7-Methyl-2,3,6,7,8,9-hexahydro-1H-cyclopenta[4,5]thieno[2,3-b]quinolin-10-amine] | 39.76
Nc1c2c(nc3sc4c(c13)CCC4)CCCCCC2 [BN-17, 2,3,6,7,8,9,10,11-Octahydro-1H-cycloocta [b]cyclopenta[4,5]thieno[3,2-e]pyridin-12-amine] | 49.67

Same assay, conditions: 90 min after starch; test compounds 100 mg/kg, Acarbose 10 mg/kg oral; in mg/dL (unit assumed)

Structure (SMILES) | Blood glucose level, 90 min
Nc1c2c(nc3sc4c(c13)CCC4)CCC2 [BN-13, 1,2,3,6,7,8-hexahydrocyclopenta [b]cyclopenta[4,5] thieno[3,2-e]pyridin-9-amine] | 106.50
CC1CCc2c(nc3sc4c(c3c2N)CCC4)C1 (centres unmarked) [BN-15, 7-Methyl-2,3,6,7,8,9-hexahydro-1H-cyclopenta[4,5]thieno[2,3-b]quinolin-10-amine] | 113.75
Nc1c2c(nc3sc4c(c13)CCC4)CCCCCC2 [BN-17, 2,3,6,7,8,9,10,11-Octahydro-1H-cycloocta [b]cyclopenta[4,5]thieno[3,2-e]pyridin-12-amine] | 123.13

Same assay, conditions: 120 min after starch; test compounds 100 mg/kg, Acarbose 10 mg/kg oral

Structure (SMILES) | % Increase in glucose, 120 min [%]
Nc1c2c(nc3sc4c(c13)CCC4)CCC2 [BN-13, 1,2,3,6,7,8-hexahydrocyclopenta [b]cyclopenta[4,5] thieno[3,2-e]pyridin-9-amine] | 30.27
CC1CCc2c(nc3sc4c(c3c2N)CCC4)C1 (centres unmarked) [BN-15, 7-Methyl-2,3,6,7,8,9-hexahydro-1H-cyclopenta[4,5]thieno[2,3-b]quinolin-10-amine] | 42.80
Nc1c2c(nc3sc4c(c13)CCC4)CCCCCC2 [BN-17, 2,3,6,7,8,9,10,11-Octahydro-1H-cycloocta [b]cyclopenta[4,5]thieno[3,2-e]pyridin-12-amine] | 49.64

Same assay, conditions: 120 min after starch; test compounds 100 mg/kg, Acarbose 10 mg/kg oral; in mg/dL (unit assumed)

Structure (SMILES) | Blood glucose level, 120 min
Nc1c2c(nc3sc4c(c13)CCC4)CCC2 [BN-13, 1,2,3,6,7,8-hexahydrocyclopenta [b]cyclopenta[4,5] thieno[3,2-e]pyridin-9-amine] | 106.30
CC1CCc2c(nc3sc4c(c3c2N)CCC4)C1 (centres unmarked) [BN-15, 7-Methyl-2,3,6,7,8,9-hexahydro-1H-cyclopenta[4,5]thieno[2,3-b]quinolin-10-amine] | 116.05
Nc1c2c(nc3sc4c(c13)CCC4)CCCCCC2 [BN-17, 2,3,6,7,8,9,10,11-Octahydro-1H-cycloocta [b]cyclopenta[4,5]thieno[3,2-e]pyridin-12-amine] | 122.80

Same assay, conditions: basal, prior to dosing; test compounds 100 mg/kg, Acarbose 10 mg/kg oral; starch 2 gm/kg; in mg/dL (unit assumed)

Structure (SMILES) | Blood glucose level, 0 min
Nc1c2c(nc3sc4c(c13)CCC4)CCC2 [BN-13, 1,2,3,6,7,8-hexahydrocyclopenta [b]cyclopenta[4,5] thieno[3,2-e]pyridin-9-amine] | 81.67
CC1CCc2c(nc3sc4c(c3c2N)CCC4)C1 (centres unmarked) [BN-15, 7-Methyl-2,3,6,7,8,9-hexahydro-1H-cyclopenta[4,5]thieno[2,3-b]quinolin-10-amine] | 81.45
Nc1c2c(nc3sc4c(c13)CCC4)CCCCCC2 [BN-17, 2,3,6,7,8,9,10,11-Octahydro-1H-cycloocta [b]cyclopenta[4,5]thieno[3,2-e]pyridin-12-amine] | 82.40
